The subject of this experiment is murine fibroblasts (NIH3T3) over-expressing human IGF-1 receptor. As to the kind of experiment: Test (c): inhibition of IGF-stimulated cell proliferation (BrdU incorporation). The experiment is classed as cell-based. Conditions: inhibition of IGF-stimulated proliferation in NIH3T3 over-expressing human IGF-1 receptor. The procedure: The construction of murine fibroblasts (NIH3T3) over-expressing human IGF-1 receptor has been described by Lammers et al (EMBO J, 8, 1369-1375, 1989). These cells show a proliferative response to IGF-I which can be measured by BrdU incorporation into newly synthesised DNA. Compound potency was determined as causing inhibition of the IGF-stimulated proliferation in the following assay:
Compounds are initially dissolved in DMSO to 10 mM, followed by dilutions in DMEM+1% FCS+glutamine to give a range from […] in 1-0.00045% DMSO final concentration in assay well.
Exponentially growing NIH3T3/IGFR cells were harvested and seeded in complete growth medium into a flat-bottomed 96 well tissue culture grade plate (Costar 3525) at 1.2×10^4 cells per well in a volume of 100 μl.
Growth medium was carefully removed from each well using a multi-channel pipette. Wells were carefully rinsed three times with 200 μl with HBSS. 100 μl of starvation medium was added to each well and the plate was re-incubated for 24 hours.
50 μl of a 4× concentrate of test compound was added to appropriate wells. Cells were incubated for 30 minutes with compound alone before the addition of IGF. For cells treated with IGF, an appropriate volume (i.e. 25 μl) of starvation medium was added to make a final volume per well up to 200 μl followed by 25 μl of IGF-1 at 160 ng/ml (to give a final concentration of 20 ng/ml). […] The plate was re-incubated for 20 hours.
The incorporation of BrdU in the cells (after a 4 h incorporation period) was assessed using the BrdU Cell Proliferation Elisa according to the manufacturer's protocol.
A general note: Dividing cells build labelled thymidine or BrdU into new DNA.

Each structure is given as a SMILES string.

For orientation: IC50 means the concentration that inhibits the measured activity by half. For `CCOc1nccnc1-c1cc([C@@H]2CCCN2c2nc(C)cc(Nc3cc(C)[nH]n3)n2)on1` [Example 1, S-2-[2-{3-(3-Ethoxypyrazin-2-yl)isoxazol-5-yl}pyrrolidin-1-yl]-6-methyl-4-(5-methyl-1H-pyrazol-3-ylamino)pyrimidine], 0.04 µM corresponded to half-maximal inhibition (IC50). The figure for `Cc1cc(Nc2cc(C)[nH]n2)nc(N2CCC[C@H]2c2cc(-c3cccnc3C)no2)n1` [Example 3, S-2-[2-{3-(2-Methylpyrid-3-yl)isoxazol-5-yl}pyrrolidin-1-yl]-6-methyl-4-(5-methyl-1H-pyrazol-3-ylamino)pyrimidine] is 0.006 µM; for `Cc1cc(Nc2cc(C)[nH]n2)nc(N2CCC[C@H]2c2cc(-c3cccnc3C#N)no2)n1` [Example 7, S-2-[2-{3-(2-Cyanopyrid-3-yl)isoxazol-5-yl}pyrrolidin-1-yl]-6-methyl-4-(5-methyl-1H-pyrazol-3-ylamino)pyrimidine] it is 0.004 µM.

For the origin of these results see patent US20080167297A1, “Pyrimidine Derivatives for Use as Anticancer Agents” (ASTRAZENECA AB, priority 2005, published 2008).
